In ChEMBL document CHEMBL4052640 (Eur J Med Chem, 2017):

How the values were obtained:
[1] = Cytotoxicity against human HeLa cells assessed as alterations in cell morphology by microscopic analysis; type: cell-based
[2] = tested on: Vesicular stomatitis virus; assay: microbe, parasite or virus in culture; details: HeLa
[3] = tested on: MDCK; assay: Cytotoxicity against dog MDCK cells assessed as reduction in cell viability measured after 5 to 6 days by MTS assay; type: cell-based, Canis lupus familiaris
[4] = tested on: Coxsackievirus B4; type: functional; details: Enterovirus B, Vero
[5] = tested on: Coxsackievirus B4; type: functional, cell-based; details: Enterovirus B, HeLa
[6] = tested on: Yellow fever virus; assay: microbe, parasite or virus in culture; details: Vero
[7] = tested on: Respiratory syncytial virus; assay: microbe, parasite or virus in culture; details: human respiratory syncytial virus, HeLa
[8] = tested on: Human respirovirus 3; assay: microbe, parasite or virus in culture; details: Human respirovirus 3, Vero
[9] = tested on: Sindbis virus; type: functional; details: Vero
[10] = tested on: Influenza A virus; type: functional, cell-based; details: A/Ned/378/05(H1N1), MDCK
[11] = cells; details: MDCK
[12] = tested on: Influenza A virus; type: functional, cell-based; details: A/Ned/378/05(H1N1), MDCK; remark: listed apart in the source
[13] = cells; details: Influenza A virus, MDCK
[14] = tested on: Respiratory syncytial virus; type: functional, cell-based; details: human respiratory syncytial virus, HeLa
[15] = cells; details: Influenza A virus, MDCK; remark: listed apart in the source
[16] = tested on: Punta Toro virus; type: functional; details: Vero
[17] = tested on: Influenza B virus; assay: microbe, parasite or virus in culture; details: B/Ned/537/05, MDCK
[18] = tested on: Mammalian orthoreovirus 1; type: functional; details: Mammalian orthoreovirus 1, Vero

| Structure (SMILES) | MCC [1] [µM] | EC50 [2] [µM] | CC50 [3] [µM] | EC50 [4] [µM] | EC50 [5] [µM] | EC50 [6] [µM] | EC50 [7] [µM] | EC50 [8] [µM] | EC50 [9] [µM] | EC50 [10] [µM] | EC50 [11] [µM] | EC50 [12] [µM] | EC50 [13] [µM] | EC50 [14] [µM] | EC50 [15] [µM] | EC50 [16] [µM] | EC50 [17] [µM] | EC50 [18] [µM] |
| --- | --- | --- | --- | --- | --- | --- | --- | --- | --- | --- | --- | --- | --- | --- | --- | --- | --- | --- |
| CC1(C)N=C(N)N=C(N)N1c1cccc(C(F)(F)F)c1 | 20 | > 100 | 6.1 | > 100 | > 100 | > 100 | 0.03 | > 100 | > 100 | – | – | – | – | – | – | – | – | – |
| CC1(C)N=C(N)N=C(N)N1c1ccc([N+](=O)[O-])cc1 | – | > 100 | > 100 | > 100 | > 100 | > 100 | – | > 100 | > 100 | > 100 | 7.8 | > 100 | > 83 | 27 | > 83 | > 100 | 35 | > 100 |
| NC1=NC(c2ccccc2)N(c2ccc(Cl)cc2)C(N)=N1 (configuration not stated) | – | > 100 | > 100 | > 100 | > 100 | > 100 | – | > 100 | > 100 | > 100 | > 100 | > 100 | > 83 | > 100 | > 83 | > 100 | > 100 | > 100 |
| CC1(C)N=C(N)N=C(N)N1c1ccc(Cl)c(Cl)c1 [CHLORCYCLOGUANIL] | – | > 100 | 6.7 | > 100 | > 100 | > 100 | – | > 100 | > 100 | 0.55 | 0.03 | 0.35 | 1.4 | 0.0075 | 0.72 | > 100 | 0.08 | 3.8 |
| CCOC(=O)c1ccc(N2C(N)=NC(N)=NC2(C)C)cc1 | – | > 100 | > 100 | > 100 | > 100 | > 100 | – | > 100 | > 100 | > 100 | > 100 | > 100 | > 83 | > 100 | > 83 | > 100 | > 100 | > 100 |
| N=C(N)NC(=N)Nc1ccc(Cl)cc1 [4-CHLOROPHENYLBIGUANIDE] | – | > 100 | > 100 | > 100 | > 100 | > 100 | – | > 100 | > 100 | > 100 | > 100 | > 100 | > 83 | > 100 | > 83 | > 100 | > 100 | > 100 |
| CC1(C)N=C(N)N=C(N)N1c1ccc(Cl)cc1Cl | – | > 100 | > 100 | > 100 | > 100 | > 100 | – | > 100 | > 100 | > 100 | > 100 | > 100 | ≥ 83 | > 100 | > 83 | > 100 | > 100 | > 100 |
| CC(C)C1(C)N=C(N)N=C(N)N1c1ccc(Cl)cc1 (configuration not stated) | – | > 100 | > 100 | > 100 | > 100 | > 100 | – | > 100 | > 100 | 45 | 1 | 68 | 33 | 0.8 | 24 | > 100 | 2.8 | > 100 |
| [H]/N=C(\N/C(=N/[H])Nc1ccc(Cl)cc1)NC(C)C [PROGUANIL] | – | > 100 | > 100 | > 100 | > 100 | > 100 | – | > 100 | > 100 | > 100 | > 100 | > 100 | > 83 | > 100 | > 83 | > 100 | > 100 | > 100 |
